Counter-ions that a name gives are not always drawn. Like-named read-outs stand apart in the source and are kept apart here.

The values that follow come from US20210403435A1, “HERBICIDAL COMPOUNDS” (SYNGENTA CROP PROTECTION AG, priority 2018, published 2021).

What all share (assay): Post-emergence efficacy, glasshouse, evaluated after 13 days
Assay type in all cases: in vivo

The subject of one assay is Lolium perenne (LOLPE). The note with it: Lolium perenne, 312 h, read-out: Control of weed species LOLPE (100=total damage to plant; 0=no damage to plant). The essentials:
(§1)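 Scoring: 0 (no damage) to 100 (total damage), 13 days post-spray. Treatment applied post-emergence to plants grown 14 days in a controlled glasshouse at 24/16 °C and 65% humidity.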

The test system of assay [1] is Ipomoea hederacea (IPOHE). The note with it: Ipomoea hederacea, 312 h, read-out: Control of weed species IPOHE (100=total damage to plant; 0=no damage to plant). The essentials: as §1
For a further assay, the system named is Eleusine indica (ELEIN). The note with it: Eleusine indica, 312 h, read-out: Control of weed species ELEIN (100=total damage to plant; 0=no damage to plant). The essentials: as §1
Assay [2] has as its system Amaranthus palmeri (AMAPA). The settings on record: Amaranthus palmeri, 312 h, read-out: Control of weed species AMAPA (100=total damage to plant; 0=no damage to plant). The essentials: as §1
The test system of assay [3] is Euphorbia heterophylla (EPHHL). The note with it: Euphorbia heterophylla, 312 h, read-out: Control of weed species EPHHL (100=total damage to plant; 0=no damage to plant). Put shortly:
as §1

The test system of assay [4] is Chenopodium album (CHEAL). The settings on record: Chenopodium album, 312 h, read-out: Control of weed species CHEAL (100=total damage to plant; 0=no damage to plant). Put shortly: as §1
The test system of assay [5] is Echinochloa crus-galli (ECHCG). The note with it: Echinochloa crus-galli, 312 h, read-out: Control of weed species ECHCG (100=total damage to plant; 0=no damage to plant). Put shortly:
as §1

Assay [6] has as its system Digitaria sanguinalis (DIGSA). The note with it: Digitaria sanguinalis, 312 h, read-out: Control of weed species DIGSA (100=total damage to plant; 0=no damage to plant). The essentials:
as §1

A further assay has as its system Setaria faberi (SETFA). The note with it: Setaria faberi, 312 h, read-out: Control of weed species SETFA (100=total damage to plant; 0=no damage to plant). The essentials:
as §1

The mark [7] stands for this setting: post-emergence application, 500 g/Ha, evaluated after 13 days.

On to `O=C(O)CC[n+]1ccc(C(=O)NCCc2ncccn2)cn1` [Compound A145], for which the pest or weed control at 500 g/ha with Lolium perenne (LOLPE) (setting [7]) came out at 70%; in assay [1] (setting [7]), 30%; in the assay on Eleusine indica (ELEIN) (setting [7]) it was 100%; in [2] (setting [7]), 100%; in [3] (setting [7]) it was 0%; in [4] (setting [7]), 100%. Also, the pest or weed control at 500 g/ha in assay [5] (setting [7]) came to 60%; in assay [6] (setting [7]), 100%; with Setaria faberi (SETFA) (setting [7]), 80%.
As for `Cn1nccc1NC(=O)c1cc[n+](CCC(=O)O)nc1` [Compound A116], the pest or weed control at 500 g/ha with Lolium perenne (LOLPE) (setting [7]) was found to be 10%; in [1] (setting [7]), 10%; in the assay with Eleusine indica (ELEIN) (setting [7]) it was 40%; in [2] (setting [7]), 40%; in assay [3] (setting [7]), 50%; in assay [4] (setting [7]) it was 20%. For the same compound, the pest or weed control at 500 g/ha in [5] (setting [7]) is 40%; in [6] (setting [7]), 60%; with Setaria faberi (SETFA) (setting [7]) it was 40%.
As for `Cn1cnc(CNC(=O)c2cc[n+](CCC(=O)O)nc2)n1` [Compound A147], the pest or weed control at 500 g/ha in the assay on Lolium perenne (LOLPE) (setting [7]) stood at 90%; in assay [1] (setting [7]), 40%; with Eleusine indica (ELEIN) (setting [7]), 90%; in assay [2] (setting [7]), 100%; in assay [3] (setting [7]), 80%; in [4] (setting [7]), 90%. Further, the pest or weed control at 500 g/ha in assay [5] (setting [7]) was found to be 90%; in [6] (setting [7]), 100%; with Setaria faberi (SETFA) (setting [7]) it was 80%.
For the compound `COC(=O)CC[n+]1ccc(C(=O)N(C)C)cn1` [Compound A2], the pest or weed control at 500 g/ha in the assay on Lolium perenne (LOLPE) (setting [7]) amounted to 20%; in [1] (setting [7]), 20%; in the assay on Eleusine indica (ELEIN) (setting [7]), 10%; in assay [2] (setting [7]) it was 10%; in assay [3] (setting [7]), 50%; in [4] (setting [7]), 10%. Further, the results for the pest or weed control at 500 g/ha (in [5] (setting [7]); in assay [6] (setting [7]); in the assay with Setaria faberi (SETFA) (setting [7])) were 30%, 50% and 30%, respectively.
In the case of `O=C(NCC(F)(F)F)c1cc[n+](CCS(=O)(=O)[O-])nc1` [Compound A36], the pest or weed control at 500 g/ha came to 20% with Lolium perenne (LOLPE) (setting [7]); 40% in assay [1] (setting [7]); 60% in the assay with Eleusine indica (ELEIN) (setting [7]); 100% in assay [2] (setting [7]); 50% in assay [3] (setting [7]); 90% in [4] (setting [7]). Further, the pest or weed control at 500 g/ha in assay [5] (setting [7]) was 30%; in assay [6] (setting [7]) it was 60%; in the assay on Setaria faberi (SETFA) (setting [7]) it was 60%.
For `COCCNC(=O)c1cc[n+](CCS(=O)(=O)[O-])nc1` [Compound A52], the pest or weed control at 500 g/ha was 30% in the assay on Lolium perenne (LOLPE) (setting [7]); 60% in assay [1] (setting [7]); 20% with Eleusine indica (ELEIN) (setting [7]); 100% in [2] (setting [7]); 60% in assay [3] (setting [7]); 100% in assay [4] (setting [7]). For the same compound, the pest or weed control at 500 g/ha in assay [5] (setting [7]) is 80%; in assay [6] (setting [7]), 90%; with Setaria faberi (SETFA) (setting [7]) it was 80%.
With `N#CCCNC(=O)c1cc[n+](CCC(=O)O)nc1` [Compound A113], the pest or weed control at 500 g/ha with Lolium perenne (LOLPE) (setting [7]) was 90%; in assay [1] (setting [7]) it was 30%; in the assay with Eleusine indica (ELEIN) (setting [7]) it was 100%; in [2] (setting [7]), 100%; in assay [3] (setting [7]) it was 90%; in assay [4] (setting [7]) it was 80%. For the same compound, the pest or weed control at 500 g/ha was found to be 90% in assay [5] (setting [7]), 100% in assay [6] (setting [7]) and 100% in the assay with Setaria faberi (SETFA) (setting [7]).
For the compound `CC(CC(=O)O)[n+]1ccc(C(=O)NC2(C#N)CC2)cn1` (stereo not drawn) [Compound A62], the pest or weed control at 500 g/ha turned out to be 70% with Lolium perenne (LOLPE) (setting [7]); 30% in assay [1] (setting [7]); 90% in the assay on Eleusine indica (ELEIN) (setting [7]); 100% in assay [2] (setting [7]); 100% in assay [3] (setting [7]); 90% in [4] (setting [7]). Besides, the figures for the pest or weed control at 500 g/ha (in assay [5] (setting [7]); in assay [6] (setting [7]); in the assay with Setaria faberi (SETFA) (setting [7])) were 80%, 70% and 70%, respectively.
In the case of `CCC1(NC(=O)c2cc[n+](CCC(=O)O)nc2)CC1` [Compound A134], the pest or weed control at 500 g/ha with Lolium perenne (LOLPE) (setting [7]) worked out at 90%; in [1] (setting [7]) it was 20%; in the assay with Eleusine indica (ELEIN) (setting [7]), 90%; in [2] (setting [7]) it was 100%; in assay [3] (setting [7]) it was 40%; in assay [4] (setting [7]) it was 90%. The pest or weed control at 500 g/ha worked out at 100% in assay [5] (setting [7]), 100% in [6] (setting [7]) and 60% in the assay with Setaria faberi (SETFA) (setting [7]).
Regarding `O=C(O)CC[n+]1ccc(C(=O)Nc2ccc(F)cc2F)cn1` [Compound A106], the pest or weed control at 500 g/ha turned out to be 50% in the assay on Lolium perenne (LOLPE) (setting [7]); 30% in assay [1] (setting [7]); 70% in the assay with Eleusine indica (ELEIN) (setting [7]); 100% in [2] (setting [7]); 60% in [3] (setting [7]); 50% in [4] (setting [7]). The figures for the pest or weed control at 500 g/ha (in assay [5] (setting [7]); in assay [6] (setting [7]); in the assay with Setaria faberi (SETFA) (setting [7])) were 10%, 40% and 90%, respectively.
On to `Cn1ncnc1CCNC(=O)c1cc[n+](CCC(=O)O)nc1` [Compound A144], for which the pest or weed control at 500 g/ha in the assay on Lolium perenne (LOLPE) (setting [7]) came out at 60%; in assay [1] (setting [7]) it was 50%; in the assay with Eleusine indica (ELEIN) (setting [7]), 100%; in [2] (setting [7]) it was 100%; in assay [3] (setting [7]), 90%; in [4] (setting [7]), 100%. For the same compound, the pest or weed control at 500 g/ha was found to be 60% in assay [5] (setting [7]), 80% in assay [6] (setting [7]) and 90% with Setaria faberi (SETFA) (setting [7]).
`O=C(O)CC[n+]1ccc(C(=O)N2CCCCC2)cn1` [Compound A24, 3-[4-(piperidine-1-carbonyl)pyridazin-1-ium-1-yl]propanoic acid trifluoroacetate]: the pest or weed control at 500 g/ha in the assay on Lolium perenne (LOLPE) (post-emergence) was 30%; in assay [1] (post-emergence), 30%; in the assay on Eleusine indica (ELEIN) (post-emergence), 60%; in [2] (post-emergence), 100%; in assay [3] (post-emergence) it was 90%; in assay [4] (post-emergence) it was 90%. For the same compound, the pest or weed control at 500 g/ha amounted to 60% in [5] (post-emergence), 70% in assay [6] (post-emergence) and 60% in the assay with Setaria faberi (SETFA) (post-emergence).
Turning to `CN1CCN(C(=O)c2cc[n+](CCC(=O)O)nc2)CC1` [Compound A133], the pest or weed control at 500 g/ha with Lolium perenne (LOLPE) (setting [7]) came out at 0%; in [1] (setting [7]) it was 10%; in the assay on Eleusine indica (ELEIN) (setting [7]), 50%; in assay [2] (setting [7]), 20%; in assay [3] (setting [7]), 20%; in [4] (setting [7]), 10%. Moreover, the pest or weed control at 500 g/ha in assay [5] (setting [7]) is 60%; in assay [6] (setting [7]), 90%; with Setaria faberi (SETFA) (setting [7]), 70%.
